Test results as given in article PMC11855827, “High-Throughput Screening of Five Compound Libraries for Anthelmintic Activity and Toxicity Leads to the Discovery of Two Flavonoid Compounds” (International Journal of Molecular Sciences, 2025).
Where “and” joins values, the source holds several entries; their conditions need not be identical. Equal entries are not always repeated. Where two headings read alike, the source gives them in different places.

How the values were obtained:
[1] = tested on: C. elegans; test: C. elegans motility dose-response (DR) assay; set-up: species or system Caenorhabditis elegans
[2] = tested on: H. contortus susceptible strain; test: Larval migration inhibition test (LMIT); set-up: species or system Haemonchus contortus; settings: L3, 100 μM, NE = Not Effective at 100 μM, control ivermectin 8.75 µg/mL; for inhibition at 100 µM: Haemonchus contortus, 24 h
Text: (§1) Eggs and third instar larvae (L3) of H. contortus from a field strain and a resistant strain of T. circumcincta were used in the current trials. These parasitic forms were obtained from fresh feces of Merino and Churra sheep experimentally infected at the experimental farm of the Instituto de Ganadería de Montaña (IGM, CSIC, Gruyeros, León, Spain) and purified according to previously described methods. Briefly, eggs were taken from fresh feces, washed, centrifuged and floated with a saturated sodium chloride solution, then concentrated, counted and used in the assays. L3 were obtained by culturing feces at 25 °C for 13 d. L3 larvae were […] in 0.5% sodium hypochlorite solution for 10 min at room temperature and washed to avoid excess salt. After washing, they were concentrated and counted for use.
(§2) The viability of H. contortus larvae was assessed by the larval migration inhibition test (LMIT) according to previously described methods. Briefly, 700 µL aliquots containing 500–600 L3 were prepared for each compound. […] After a 24 h incubation at 28 °C, the compound was removed by three washes, leaving a final volume of 1400 µL. After the washes, three 400 µL aliquots were taken from each tube and transferred to a 96-well plate with a MultiScreen mesh filter. The plates were incubated for a further 24 h at 28 °C to allow the motile L3 to pass through the 20 µm mesh for counting. Then, the number of larvae present in each well was counted to determine percentage of larval migration for each compound: % Larval migration=number of larvae migrating in compound wells/number of larvae migrating in negative control×100
(§3) For the larvae, ivermectin at 8.75 µg/mL and DMSO 0.5% (v/v) were used as controls and at least 12 replicates were performed. […] EC50 were determined by plotting the percentage of viability of the L1 against the concentration of each compound, using the nonlinear fit analysis provided by the SigmaPlot® 10.1.

[3] = human poisoning case; cited from earlier work
[4] = tested on: H. contortus L3-L4; settings: read-out: IC50 against H. contortus L3-L4; cited from earlier work
[5] = tested on: C. elegans; settings: read-out: EC50 found in the literature; cited from earlier work
[6] = tested on: H. contortus susceptible strain; test: Egg hatch inhibition (EHI), ovicidal effect; set-up: species or system Haemonchus contortus; settings: for EC50: egg hatching, susceptible H. contortus, nine replicates, read-out: Ovicidal Effect EC50 (μM) H. c
[7] = in vitro; settings: C57BL/6, mouse
[8] = tested on: C. elegans; test: microbe, parasite or virus in culture; settings: Caenorhabditis elegans
[9] = tested on: T. circumcincta resistant strain; test: Egg hatch inhibition (EHI), ovicidal effect; set-up: species or system Teladorsagia circumcincta; settings: for EC50: egg hatching, resistant T. circumcincta, nine replicates, read-out: Ovicidal Effect EC50 (μM) T. c
[10] = Spheroids toxicity assay (alamarBlue); type: cell-based; settings: human
Method: (§4) HepG2 cells were cultured as a monolayer under standard conditions, using DMEM/F12 medium supplemented with L-glutamine and 15 mM HEPES buffer (pH 7.2) supplemented with 10% fetal bovine serum (FBS) and antibiotic mixture (100 U/mL penicillin and 100 µg/mL streptomycin) at 37 °C and 5% CO2, according to previous published protocols.
(§5) Cells were detached from the culture flask using 0.25% trypsin solution and then centrifuged at 500× g for 6.5 min. After centrifugation, the supernatant was discarded, and the pellet was resuspended in culture medium. Cells were passed gently through a G27 needle several times and then counted. Cells were dispensed into a tissue treated Nunclon™ Sphera™ 96-well U-bottom plate (Thermo Scientific™, Waltham, MA, USA, 174925) in a final volume of 50 µL to a total of 2500 cells/well. In addition, another 50 µL of medium supplemented with Rat Tail Collagen I (Gibco™, Thermo Scientific™, Waltham, MA, USA, A1048301) was dispensed, to achieve a final concentration in a plate of 3 µg/mL for each well. The plate was centrifuged at 500× g for 1 min.
(§6) On Day 4, 100 µL of a serial dilution of the testing compounds were added to each well. For controls, 0.03% H2O2 (v/v) as positive control and 0.2% DMSO (v/v) as negative control were used.
(§7) To determine the viability of the spheroids to the testing compounds, a 20% of alamarBlue™ HS reagent (Invitrogen™, Thermo Fisher Scientific™, Waltham, MA, USA) was added on Day 7 and the results were read 24 h later using a Varioskan™ LUX (Thermo Scientific, USA, Instrument software ver. 1.00.37, Skanlt software ver. 5.0.0.42). All assays were conducted in duplicate across at least three independent experiments.

[11] = Globally Harmonized System (GHS) / ECHA; cited from earlier work
[12] = mice, estimated; cited from earlier work
[13] = tested on: mouse intestinal organoids (enteroids); settings: C57BL/6, mouse
[14] = tested on: C. elegans
[15] = tested on: mouse intestinal organoids (enteroids); test: Mouse intestinal organoids' tolerance assay (alamarBlue); settings: read-out: Citotoxicity CC50 (μM) Ent; mouse enteroid
[16] = tested on: HepG2 liver spheroids; test: Spheroids toxicity assay (alamarBlue); type: cell-based
Method: as §4, §5, §6, §7

[17] = tested on: T. circumcincta resistant strain; test: Larval migration inhibition test (LMIT); set-up: species or system Teladorsagia circumcincta; settings: Teladorsagia circumcincta, 24 h; resistant strain, L3, 100 μM; NE = Not Effective at 100 μM; control ivermectin 8.75 µg/mL; read-out: T. circumcincta LMIT (%)
Text: as §1, §2, §3

[18] = Mouse intestinal organoids' tolerance assay (alamarBlue); settings: C57BL/6, mouse; for selectivity ratio at 3 d: mouse intestinal organoids (enteroids)
[19] = tested on: Staphylococcus epidermidis, Escherichia coli, and Candida albicans; set-up: method as in earlier work; settings: in vitro; cited from earlier work
[20] = Haemonchus contortus, susceptible strain, 100 μM, NE = Not Effective at 100 μM, control thiabendazole 0.1 µg/mL
[21] = Selective Index (SI) CC50/EC50 Ent/H. c, CC50 mouse enteroid / EC50 H. contortus
[22] = Selective Index (SI) CC50/EC50 Ent/T. c, CC50 mouse enteroid / EC50 T. circumcincta
[23] = Teladorsagia circumcincta, resistant strain, 100 μM, NE = Not Effective at 100 μM, control thiabendazole 0.1 µg/mL
[24] = HepG2 liver spheroids, read-out: Citotoxicity CC50 (μM) Sph

SMILES: CCc1nn(C)c(C(=O)NCc2ccc(Oc3ccc(C)cc3)cc2)c1Cl [Tolfenpyrad]
- EC50 ([1]; Caenorhabditis elegans, read-out: EC50 (μM) at 24 h, C. elegans motility, DR assay): 2.4 ± 0.2 µM
- inhibition at 100 µM [2]: 9 ± 6.3%
- Plasma concentration in a poisoning case [3]: 1.97 µg/mL and 5.08 µM
- IC50 [4]: 0.02 to 3 µM
- EC50 [5]: 3.6 µM
- EC50 ([6]; Haemonchus contortus): 1.5 ± 0.1 µM
- inhibition at 100 µM [6, 20]: 96 ± 2.9%
- CC50 [7]: < 1 µM
- selectivity ratio [7, 21]: < 0.7
- selectivity ratio [7, 22]: < 5
- inhibition at 110 µM ([8]; 0 h, read-out: Inhibition (%) 110 μM (0 h)): 80 ± 2%
- inhibition at 110 µM ([8]; 24 h, read-out: Inhibition (%) 110 μM (24 h)): 98 ± 2%
- EC50 ([9]; Teladorsagia circumcincta): 0.2 ± 0.3 µM
- inhibition at 100 µM [9, 23]: 99.7 ± 0.5%
- selectivity ratio ([10]; pH 7.2, CC50 HepG2 spheroids / EC50 H. contortus, read-out: Selective Index (SI) CC50/EC50 Sph/H. c): > 33.3
- selectivity ratio ([10]; pH 7.2, CC50 HepG2 spheroids / EC50 T. circumcincta, read-out: Selective Index (SI) CC50/EC50 Sph/T. c): 250
- CC50 [10, 24]: > 50 µM
- GHS classification [11]: category 4: acute toxicity
- Maximum tolerated dose (MTD) [12]: 1 mg/kg

SMILES: O=C(/C=C/c1ccccc1)c1ccccc1 [Trans-chalcone]
- EC50 ([1]; read-out: EC50 (μM) at 24 h, C. elegans motility, DR assay): 24.9 ± 1.8 µM
- H. contortus LMIT (%) [2]: 20.3 ± 7.5%
- Selective Index (SI) CC50/EC50 Ent/H. c [13]: >16.1
- Selective Index (SI) CC50/EC50 Ent/T. c [13]: >10.2
- EC50 [6]: 3.1 ± 0.2 µM
- H. contortus EHI (%) ([6]; susceptible strain, 100 μM, NE = Not Effective at 100 μM, control thiabendazole 0.1 µg/mL): 99.5 ± 0.7%
- Inhibition (%) 110 μM (0 h) ([14]; 0 h, 110 μM): 16 ± 17%
- Inhibition (%) 110 μM (24 h) ([14]; 24 h, 110 µM): 95 ± 5%
- CC50 [15]: > 50 µM
- inhibition at 110 µM ([8]; 0 h, read-out: Percentage of motility inhibition 0 h, Table S2, C. elegans SS assay, 110 μM, 0 h, averages of 4 data points): 17%
- inhibition at 110 µM ([8]; 24 h, read-out: Percentage of motility inhibition 24 h, Table S2, C. elegans SS assay, 110 μM, 24 h, averages of 4 data points): 96%
- EC50 [9]: 4.9 ± 0.2 µM
- T. circumcincta EHI (%) ([9]; resistant strain, 100 μM, NE = Not Effective at 100 μM, control thiabendazole 0.1 µg/mL): 99.9 ± 0.2%
- CC50 [16, 24]: > 90 µM
- Selective Index (SI) CC50/EC50 Sph/H. c ([16]; human, pH 7.2): >29.0
- Selective Index (SI) CC50/EC50 Sph/T. c ([16]; human, pH 7.2): >18.4

SMILES: CCCCCCCCN=c1ccn(CCCCCCCCCCn2ccc(=NCCCCCCCC)cc2)cc1 [Octenidine, reference compound]
- EC50 ([1]; Caenorhabditis elegans, 24 h, read-out: EC50 (μM) at 24 h, C. elegans motility, DR assay, 24 h): 6.9 ± 0.5 µM
- inhibition at 100 µM [2]: 98.3 ± 0.3%
- inhibition at 100 µM [17]: 94.8 ± 4.3%
- EC50 ([6]; Haemonchus contortus): 2.1 ± 0.1 µM
- inhibition at 100 µM [6, 20]: 99.5 ± 0.8%
- CC50 at 3 d [18]: 14.2 ± 0.4 µM
- selectivity ratio at 3 d [18, 21]: 6.8
- selectivity ratio at 3 d [18, 22]: 0.9
- inhibition at 110 µM ([8]; 0 h, read-out: Inhibition (%) 110 μM (0 h), C. elegans L4 motility, 110 μM, 0 h, mean ± SD of four experiments): 84 ± 1%
- inhibition at 110 µM ([8]; 24 h, read-out: Inhibition (%) 110 μM (24 h), C. elegans L4 motility, 110 μM, 24 h, mean ± SD of four experiments): 96 ± 5%
- EC50 ([9]; Teladorsagia circumcincta): 15.1 ± 4.8 µM
- inhibition at 100 µM [9, 23]: 99.5 ± 0.9%
- CC50 at 3 d ([10]; HepG2 liver spheroids (3D culture), read-out: Citotoxicity CC50 (μM) Sph): 54.1 ± 2.8 µM
- selectivity ratio at 3 d ([10]; HepG2 liver spheroids, pH 7.2, CC50 HepG2 spheroids / EC50 H. contortus, read-out: Selective Index (SI) CC50/EC50 Sph/H. c): 25.8
- selectivity ratio at 3 d ([10]; HepG2 liver spheroids, pH 7.2, CC50 HepG2 spheroids / EC50 T. circumcincta, read-out: Selective Index (SI) CC50/EC50 Sph/T. c): 3.6
- GHS classification [11]: category 4: acute toxicity
- Concentration leading to a microbial reduction of more than 99% within 15 min [19]: below 1.5 μM
